Data on six compounds can be found in PubChem BioAssay AID1259407 (Chemical Carcinogenesis Research Information System (CCRIS), 2018).

Activity calls are given as the source filed them. No rule for the calls is given here.

The data set relates to CCRIS mutagenicity, Ames/micronucleus/aberration tests. In words: CCRIS mutagenicity studies.
Where [1] appears, read: Test System: AMES SALMONELLA TYPHIMURIUM, Strain/Indicator: TA98, Metabolic Activation: NONE, Method: PREINCUBATION
The mark [2] stands for this setting: Test System: AMES SALMONELLA TYPHIMURIUM, Strain/Indicator: TA100, Metabolic Activation: NONE, Method: PREINCUBATION
[3] abbreviates: Test System: AMES SALMONELLA TYPHIMURIUM, Strain/Indicator: TA98, Metabolic Activation: RAT, LIVER, S-9, AROCLOR, Method: STANDARD PLATE.

As to `CC(=O)N(C)c1ccc(N=Nc2ccc(N(C)C(C)=O)cc2)cc1`, the mutagenic call (Test System: AMES SALMONELLA TYPHIMURIUM, Strain/Indicator: TA98, Metabolic Activation: RAT, LIVER, S-9, POLYCHLORINATED BIPHENYLS, Method: PREINCUBATION) is “inactive; negative” and the mutagenic call (Test System: AMES SALMONELLA TYPHIMURIUM, Strain/Indicator: TA100, Metabolic Activation: RAT, LIVER, S-9, POLYCHLORINATED BIPHENYLS, Method: PREINCUBATION) is “inactive; negative”.
Take `CC1=C[C@]2(O[C@@H]3O[C@H](CO)[C@@H](O)[C@H](O)[C@H]3O)C[C@@H](C)C(=O)[C@@H]2[C@](C)(O)C12CC2`: the mutagenic call is, setting by setting: under setting [1], “active; positive”; (Test System: AMES SALMONELLA TYPHIMURIUM, Strain/Indicator: TA98, Metabolic Activation: NONE, Method: PREINCUBATION (PH 7.4)) “inactive; negative”; (Test System: AMES SALMONELLA TYPHIMURIUM, Strain/Indicator: TA98, Metabolic Activation: NONE, Method: PREINCUBATION (PH 8.5)) “active; positive”; (Test System: AMES SALMONELLA TYPHIMURIUM, Strain/Indicator: TA98, Metabolic Activation: S-9, Method: PREINCUBATION (PH 7.4)) “inactive; negative”; under setting [2], “active; positive”; (Test System: AMES SALMONELLA TYPHIMURIUM, Strain/Indicator: TA100, Metabolic Activation: NONE, Method: PREINCUBATION (PH 7.4)) “inactive; negative”. Further, the mutagenic call is “active; positive” (Test System: AMES SALMONELLA TYPHIMURIUM, Strain/Indicator: TA100, Metabolic Activation: NONE, Method: PREINCUBATION (PH 8.5)); “inactive; negative” (Test System: AMES SALMONELLA TYPHIMURIUM, Strain/Indicator: TA100, Metabolic Activation: S-9, Method: PREINCUBATION (PH 7.4)); “active; positive” (Test System: UDS RAT HEPATOCYTES, Strain/Indicator: THY INCORP, Metabolic Activation: NONE, Method: AUTORADIOGRAPHY).
On to `O=C=Nc1ccc(Cc2ccc(N=C=O)cc2)cc1`, for which the mutagenic call reads like this: (Test System: AMES SALMONELLA TYPHIMURIUM, Strain/Indicator: TA98, Metabolic Activation: HAMSTER, LIVER, S-9, AROCLOR 1254 (10%), Method: PREINCUBATION) “inactive; negative”; under setting [1], “inactive; negative”; (Test System: AMES SALMONELLA TYPHIMURIUM, Strain/Indicator: TA98, Metabolic Activation: RAT, LIVER, S-9, AROCLOR 1254 (10%), Method: PREINCUBATION) “inactive; negative”; (Test System: AMES SALMONELLA TYPHIMURIUM, Strain/Indicator: TA98, Metabolic Activation: RAT, LIVER, S-9, KC 500, Method: PREINCUBATION) “inactive; negative”; (Test System: AMES SALMONELLA TYPHIMURIUM, Strain/Indicator: TA100, Metabolic Activation: HAMSTER, LIVER, S-9, AROCLOR 1254 (10%), Method: PREINCUBATION) “inactive; negative”; under setting [2], “inactive; negative”. Moreover, the mutagenic call was “inactive; negative” (Test System: AMES SALMONELLA TYPHIMURIUM, Strain/Indicator: TA100, Metabolic Activation: RAT, LIVER, S-9, AROCLOR 1254 (10%), Method: PREINCUBATION); “active; positive” (Test System: AMES SALMONELLA TYPHIMURIUM, Strain/Indicator: TA100, Metabolic Activation: RAT, LIVER, S-9, KC 500, Method: PREINCUBATION); “inactive; negative” (Test System: AMES SALMONELLA TYPHIMURIUM, Strain/Indicator: TA1535, Metabolic Activation: HAMSTER, LIVER, S-9, AROCLOR 1254 (10%), Method: PREINCUBATION); “inactive; negative” (Test System: AMES SALMONELLA TYPHIMURIUM, Strain/Indicator: TA1535, Metabolic Activation: NONE, Method: PREINCUBATION); “inactive; negative” (Test System: AMES SALMONELLA TYPHIMURIUM, Strain/Indicator: TA1535, Metabolic Activation: RAT, LIVER, S-9, AROCLOR 1254 (10%), Method: PREINCUBATION); “inactive; negative” (Test System: AMES SALMONELLA TYPHIMURIUM, Strain/Indicator: TA1535, Metabolic Activation: RAT, LIVER, S-9, KC 500, Method: PREINCUBATION). In addition, the mutagenic call reads like this: (Test System: AMES SALMONELLA TYPHIMURIUM, Strain/Indicator: TA1537, Metabolic Activation: HAMSTER, LIVER, S-9, AROCLOR 1254 (10%), Method: PREINCUBATION) “inactive; negative”; (Test System: AMES SALMONELLA TYPHIMURIUM, Strain/Indicator: TA1537, Metabolic Activation: NONE, Method: PREINCUBATION) “inactive; negative”; (Test System: AMES SALMONELLA TYPHIMURIUM, Strain/Indicator: TA1537, Metabolic Activation: RAT, LIVER, S-9, AROCLOR 1254 (10%), Method: PREINCUBATION) “inactive; negative”; (Test System: AMES SALMONELLA TYPHIMURIUM, Strain/Indicator: TA1537, Metabolic Activation: RAT, LIVER, S-9, KC 500, Method: PREINCUBATION) “inactive; negative”; (Test System: AMES SALMONELLA TYPHIMURIUM, Strain/Indicator: TA1538, Metabolic Activation: NONE, Method: PREINCUBATION) “inactive; negative”; (Test System: AMES SALMONELLA TYPHIMURIUM, Strain/Indicator: TA1538, Metabolic Activation: RAT, LIVER, S-9, KC 500, Method: PREINCUBATION) “inactive; negative”. For the same compound, the mutagenic call runs as follows: (Test System: E. COLI, Strain/Indicator: WP2 UVRA, Metabolic Activation: NONE, Method: PREINCUBATION) “inactive; negative”; (Test System: E. COLI, Strain/Indicator: WP2 UVRA, Metabolic Activation: RAT, LIVER, S-9, KC 500, Method: PREINCUBATION) “inactive; negative”.
Consider `CC1CNc2cc(O)c3ccc4ccccc4c3c21` (stereo not drawn), for which the mutagenic call was “active; positive” (Test System: AMES SALMONELLA TYPHIMURIUM, Strain/Indicator: TA98, Metabolic Activation: RAT, LIVER, S-9, AROCLOR 1254, Method: STANDARD PLATE) and “active; positive” under setting [3].
Take `CC[C@@]1(O)C[C@H](O[C@H]2C[C@H](N(C)C)[C@H](O[C@H]3C[C@H](O)[C@H](O)[C@H](C)O3)C(C)O2)c2c(cc3c(c2O)C(=O)c2c(O)ccc(O)c2C3=O)[C@H]1C(=O)OC` (stereo partly drawn): the mutagenic call (Test System: AMES SALMONELLA TYPHIMURIUM, Strain/Indicator: TA102, Metabolic Activation: NONE, Method: STANDARD PLATE) was “active; positive” and the mutagenic call (Test System: AMES SALMONELLA TYPHIMURIUM, Strain/Indicator: TA104, Metabolic Activation: NONE, Method: STANDARD PLATE) is “active; positive”.
For `CCCCO`, the mutagenic call was “inactive; negative” (Test System: AMES SALMONELLA TYPHIMURIUM, Strain/Indicator: TA98, Metabolic Activation: NONE, Method: STANDARD PLATE); “inactive; negative” under setting [3]; “inactive; negative” (Test System: AMES SALMONELLA TYPHIMURIUM, Strain/Indicator: TA100, Metabolic Activation: NONE, Method: STANDARD PLATE); “inactive; negative” (Test System: AMES SALMONELLA TYPHIMURIUM, Strain/Indicator: TA100, Metabolic Activation: RAT, LIVER, S-9, AROCLOR, Method: STANDARD PLATE); “inactive; negative” (Test System: AMES SALMONELLA TYPHIMURIUM, Strain/Indicator: UTH8413, Metabolic Activation: NONE, Method: STANDARD PLATE); “inactive; negative” (Test System: AMES SALMONELLA TYPHIMURIUM, Strain/Indicator: UTH8413, Metabolic Activation: RAT, LIVER, S-9, AROCLOR, Method: STANDARD PLATE). Also, the mutagenic call (Test System: AMES SALMONELLA TYPHIMURIUM, Strain/Indicator: UTH8414, Metabolic Activation: NONE, Method: STANDARD PLATE) was “inactive; negative” and the mutagenic call (Test System: AMES SALMONELLA TYPHIMURIUM, Strain/Indicator: UTH8414, Metabolic Activation: RAT, LIVER, S-9, AROCLOR, Method: STANDARD PLATE) is “inactive; negative”.
